Measured values: ChEMBL document CHEMBL4507257, “Data for DCP probe ABT-100” (2021)

How the values were obtained:
[1] = system: Tyrosine-protein kinase ABL1 (Homo sapiens), P00519 [T315I]; conditions: Compound concentration 1000.0 nM
[2] = system: Phosphatidylinositol 4,5-bisphosphate 3-kinase catalytic subunit alpha isoform (Homo sapiens), P42336 [C420R]; conditions: Compound concentration 1000.0 nM
[3] = system: Tyrosine-protein kinase ABL1 (Homo sapiens), P00519 [Y253F]; conditions: Compound concentration 1000.0 nM
[4] = molecular target: Tyrosine-protein kinase JAK1 (Homo sapiens) (UniProt P23458); conditions: Compound concentration 1000.0 nM
[5] = molecular target: Mitogen-activated protein kinase kinase kinase 9 (Homo sapiens) (UniProt P80192); conditions: Compound concentration 1000.0 nM
[6] = molecular target: Serine/threonine-protein kinase OSR1 (Homo sapiens) (UniProt O95747); conditions: Compound concentration 1000.0 nM
[7] = molecular target: 5-hydroxytryptamine receptor 7 (Homo sapiens) (UniProt P34969); conditions: Compound concentration 10.0 uM
Chain of 5-hydroxytryptamine receptor 7 (Homo sapiens) (P34969 whole entry): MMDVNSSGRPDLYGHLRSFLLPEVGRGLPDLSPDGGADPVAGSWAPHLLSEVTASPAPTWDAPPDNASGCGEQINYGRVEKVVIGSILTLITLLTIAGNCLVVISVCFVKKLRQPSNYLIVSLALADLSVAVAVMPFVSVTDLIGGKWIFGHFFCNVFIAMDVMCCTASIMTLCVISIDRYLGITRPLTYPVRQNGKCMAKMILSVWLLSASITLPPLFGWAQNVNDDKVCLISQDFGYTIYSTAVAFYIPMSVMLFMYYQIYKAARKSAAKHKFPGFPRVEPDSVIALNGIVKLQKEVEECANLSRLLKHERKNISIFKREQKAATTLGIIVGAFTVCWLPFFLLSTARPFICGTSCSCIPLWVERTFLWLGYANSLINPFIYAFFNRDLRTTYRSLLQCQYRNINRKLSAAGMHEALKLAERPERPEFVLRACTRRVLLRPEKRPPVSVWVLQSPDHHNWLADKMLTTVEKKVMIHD

[8] = molecular target: Dual specificity mitogen-activated protein kinase kinase 3 (Homo sapiens) (UniProt P46734); conditions: Compound concentration 1000.0 nM
Chain of Dual specificity mitogen-activated protein kinase kinase 3 (Homo sapiens) (P46734 whole entry): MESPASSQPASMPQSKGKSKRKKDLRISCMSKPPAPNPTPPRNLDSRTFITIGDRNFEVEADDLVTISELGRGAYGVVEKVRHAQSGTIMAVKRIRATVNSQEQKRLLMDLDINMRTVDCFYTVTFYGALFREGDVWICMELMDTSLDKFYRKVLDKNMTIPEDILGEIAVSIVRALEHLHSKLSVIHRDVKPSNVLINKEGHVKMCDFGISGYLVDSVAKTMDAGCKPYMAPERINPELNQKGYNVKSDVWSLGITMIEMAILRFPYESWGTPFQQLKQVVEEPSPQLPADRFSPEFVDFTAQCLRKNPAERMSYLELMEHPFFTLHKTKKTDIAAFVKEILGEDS

[9] = molecular target: T1, 5-hydroxytryptamine receptor 1A (Homo sapiens) (UniProt P08908); conditions: Compound concentration 10.0 uM
T1 sequence (whole entry): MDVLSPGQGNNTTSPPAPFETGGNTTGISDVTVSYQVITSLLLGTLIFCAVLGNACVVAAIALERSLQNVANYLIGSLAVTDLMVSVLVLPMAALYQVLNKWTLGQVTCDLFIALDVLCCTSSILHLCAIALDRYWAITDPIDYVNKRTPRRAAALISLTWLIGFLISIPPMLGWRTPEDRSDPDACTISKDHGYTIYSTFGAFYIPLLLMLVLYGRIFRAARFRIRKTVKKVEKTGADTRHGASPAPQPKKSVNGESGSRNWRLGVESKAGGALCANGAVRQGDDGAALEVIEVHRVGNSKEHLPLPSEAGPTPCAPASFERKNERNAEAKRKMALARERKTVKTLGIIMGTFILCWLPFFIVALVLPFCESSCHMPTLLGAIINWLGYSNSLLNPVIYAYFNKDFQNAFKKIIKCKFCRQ

[10] = molecular target: Mitogen-activated protein kinase 3 (Homo sapiens) (UniProt P27361); conditions: Compound concentration 1000.0 nM
Chain of Mitogen-activated protein kinase 3 (Homo sapiens) (P27361 whole entry): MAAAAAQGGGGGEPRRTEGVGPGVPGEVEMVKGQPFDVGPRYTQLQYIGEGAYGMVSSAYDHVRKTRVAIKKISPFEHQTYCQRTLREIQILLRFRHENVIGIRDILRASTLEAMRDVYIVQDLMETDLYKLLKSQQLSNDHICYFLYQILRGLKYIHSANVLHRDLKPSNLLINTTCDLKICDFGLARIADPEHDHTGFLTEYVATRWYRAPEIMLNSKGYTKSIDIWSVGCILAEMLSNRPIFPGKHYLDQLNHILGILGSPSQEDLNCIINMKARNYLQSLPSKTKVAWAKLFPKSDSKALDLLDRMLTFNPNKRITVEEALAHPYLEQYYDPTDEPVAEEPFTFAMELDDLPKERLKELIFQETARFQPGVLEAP

[11] = molecular target: Mitogen-activated protein kinase kinase kinase 19 (Homo sapiens) (UniProt Q56UN5); conditions: Compound concentration 1000.0 nM
[12] = molecular target: Proto-oncogene tyrosine-protein kinase Src (Homo sapiens) (UniProt P12931); conditions: Compound concentration 1000.0 nM
[13] = molecular target: Cyclin-dependent kinase 17 (Homo sapiens) (UniProt Q00537); conditions: Compound concentration 1000.0 nM
[14] = molecular target: T2, 5-hydroxytryptamine receptor 2C (Homo sapiens) (UniProt P28335); conditions: Compound concentration 10.0 uM
T2 sequence (whole entry): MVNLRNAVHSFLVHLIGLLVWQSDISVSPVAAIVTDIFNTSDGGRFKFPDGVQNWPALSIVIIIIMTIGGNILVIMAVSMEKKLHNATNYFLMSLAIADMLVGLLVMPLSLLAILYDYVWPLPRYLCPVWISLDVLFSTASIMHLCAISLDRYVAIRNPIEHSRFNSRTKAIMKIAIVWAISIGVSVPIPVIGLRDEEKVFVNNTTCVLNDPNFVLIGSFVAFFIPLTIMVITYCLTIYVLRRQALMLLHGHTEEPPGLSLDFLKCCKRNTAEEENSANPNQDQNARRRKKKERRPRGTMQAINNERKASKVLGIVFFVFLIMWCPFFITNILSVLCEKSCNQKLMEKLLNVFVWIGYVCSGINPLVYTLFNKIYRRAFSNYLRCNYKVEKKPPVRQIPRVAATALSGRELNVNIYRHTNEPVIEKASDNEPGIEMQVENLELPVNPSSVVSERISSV

[15] = molecular target: Cyclin-dependent kinase-like 3 (Homo sapiens) (UniProt Q8IVW4); conditions: Compound concentration 1000.0 nM
[16] = molecular target: Serine/threonine-protein kinase PAK 4 (Homo sapiens) (UniProt O96013); conditions: Compound concentration 1000.0 nM
[17] = system: Tyrosine-protein kinase ABL1 (Homo sapiens), P00519 [T315I]; conditions: Compound concentration 1000.0 nM; remark: listed apart in the source
[18] = molecular target: Ephrin type-B receptor 2 (Homo sapiens) (UniProt P29323); conditions: Compound concentration 1000.0 nM
Chain of Ephrin type-B receptor 2 (Homo sapiens) (P29323 whole entry, the tested form may be a part): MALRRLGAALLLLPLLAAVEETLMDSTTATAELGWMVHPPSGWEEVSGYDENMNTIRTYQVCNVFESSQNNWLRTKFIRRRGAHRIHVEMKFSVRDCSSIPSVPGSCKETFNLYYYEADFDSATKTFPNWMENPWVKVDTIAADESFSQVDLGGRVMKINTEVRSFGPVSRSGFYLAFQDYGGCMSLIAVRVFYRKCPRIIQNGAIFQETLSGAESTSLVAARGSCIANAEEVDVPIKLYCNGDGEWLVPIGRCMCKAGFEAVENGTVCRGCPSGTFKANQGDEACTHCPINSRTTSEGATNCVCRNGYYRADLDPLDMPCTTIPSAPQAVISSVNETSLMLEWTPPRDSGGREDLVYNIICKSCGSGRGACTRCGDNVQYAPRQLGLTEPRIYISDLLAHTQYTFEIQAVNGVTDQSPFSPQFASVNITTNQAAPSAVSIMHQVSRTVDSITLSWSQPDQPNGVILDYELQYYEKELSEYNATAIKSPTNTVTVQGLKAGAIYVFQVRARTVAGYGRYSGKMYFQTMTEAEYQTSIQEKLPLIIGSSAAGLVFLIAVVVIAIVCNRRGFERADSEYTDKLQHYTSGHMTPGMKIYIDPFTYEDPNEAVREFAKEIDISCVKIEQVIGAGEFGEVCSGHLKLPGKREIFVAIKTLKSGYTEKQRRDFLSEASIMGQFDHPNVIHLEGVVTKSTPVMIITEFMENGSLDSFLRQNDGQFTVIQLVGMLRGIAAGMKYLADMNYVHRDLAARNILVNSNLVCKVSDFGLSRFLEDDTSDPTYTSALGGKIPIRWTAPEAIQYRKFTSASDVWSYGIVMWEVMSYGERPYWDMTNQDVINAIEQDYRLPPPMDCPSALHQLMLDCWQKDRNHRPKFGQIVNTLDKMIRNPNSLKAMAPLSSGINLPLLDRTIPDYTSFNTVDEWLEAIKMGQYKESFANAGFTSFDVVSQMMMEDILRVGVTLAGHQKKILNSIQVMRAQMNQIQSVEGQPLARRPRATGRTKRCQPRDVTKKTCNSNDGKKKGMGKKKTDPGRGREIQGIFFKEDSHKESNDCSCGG

[19] = molecular target: Ankyrin repeat and protein kinase domain-containing protein 1 (Homo sapiens) (UniProt Q8NFD2); conditions: Compound concentration 1000.0 nM
Chain of Ankyrin repeat and protein kinase domain-containing protein 1 (Homo sapiens) (Q8NFD2 whole entry, the tested form may be a part): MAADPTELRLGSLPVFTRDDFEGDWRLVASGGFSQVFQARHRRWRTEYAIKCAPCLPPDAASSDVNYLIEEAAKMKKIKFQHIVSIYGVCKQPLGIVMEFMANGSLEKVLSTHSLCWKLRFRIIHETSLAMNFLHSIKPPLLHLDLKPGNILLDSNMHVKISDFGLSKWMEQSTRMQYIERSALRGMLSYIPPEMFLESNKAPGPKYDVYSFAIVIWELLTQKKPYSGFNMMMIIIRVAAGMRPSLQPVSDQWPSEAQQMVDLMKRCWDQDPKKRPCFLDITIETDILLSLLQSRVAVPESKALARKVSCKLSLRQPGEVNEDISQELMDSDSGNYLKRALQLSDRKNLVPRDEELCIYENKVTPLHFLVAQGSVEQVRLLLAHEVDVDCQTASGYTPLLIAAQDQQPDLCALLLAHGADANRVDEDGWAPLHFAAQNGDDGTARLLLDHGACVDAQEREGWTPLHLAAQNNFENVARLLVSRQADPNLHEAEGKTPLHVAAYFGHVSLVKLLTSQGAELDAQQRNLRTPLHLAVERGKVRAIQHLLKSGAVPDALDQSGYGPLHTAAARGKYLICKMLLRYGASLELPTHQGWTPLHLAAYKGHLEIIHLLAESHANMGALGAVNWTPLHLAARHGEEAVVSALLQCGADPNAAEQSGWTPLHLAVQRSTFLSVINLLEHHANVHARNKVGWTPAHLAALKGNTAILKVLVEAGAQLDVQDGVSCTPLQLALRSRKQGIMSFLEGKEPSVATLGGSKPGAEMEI

[20] = molecular target: Non-receptor tyrosine-protein kinase TNK1 (Homo sapiens) (UniProt Q13470); conditions: Compound concentration 1000.0 nM
[21] = molecular target: MAP kinase-interacting serine/threonine-protein kinase 2 (Homo sapiens) (UniProt Q9HBH9); conditions: Compound concentration 1000.0 nM
[22] = molecular target: Mitogen-activated protein kinase kinase kinase 3 (Homo sapiens) (UniProt Q99759); conditions: Compound concentration 1000.0 nM
[23] = molecular target: Serine/threonine-protein kinase 16 (Homo sapiens) (UniProt O75716); conditions: Compound concentration 1000.0 nM
[24] = molecular target: Serine/threonine-protein kinase WNK2 (Homo sapiens) (UniProt Q9Y3S1); conditions: Compound concentration 1000.0 nM
[25] = molecular target: Phosphatidylinositol 4-phosphate 3-kinase C2 domain-containing subunit beta (Homo sapiens) (UniProt O00750); conditions: Compound concentration 1000.0 nM
[26] = molecular target: Serine/threonine-protein kinase D1 (Homo sapiens) (UniProt Q15139); conditions: Compound concentration 1000.0 nM
[27] = molecular target: Dual serine/threonine and tyrosine protein kinase (Homo sapiens) (UniProt Q6XUX3); conditions: Compound concentration 1000.0 nM
Chain of Dual serine/threonine and tyrosine protein kinase (Homo sapiens) (Q6XUX3 whole entry): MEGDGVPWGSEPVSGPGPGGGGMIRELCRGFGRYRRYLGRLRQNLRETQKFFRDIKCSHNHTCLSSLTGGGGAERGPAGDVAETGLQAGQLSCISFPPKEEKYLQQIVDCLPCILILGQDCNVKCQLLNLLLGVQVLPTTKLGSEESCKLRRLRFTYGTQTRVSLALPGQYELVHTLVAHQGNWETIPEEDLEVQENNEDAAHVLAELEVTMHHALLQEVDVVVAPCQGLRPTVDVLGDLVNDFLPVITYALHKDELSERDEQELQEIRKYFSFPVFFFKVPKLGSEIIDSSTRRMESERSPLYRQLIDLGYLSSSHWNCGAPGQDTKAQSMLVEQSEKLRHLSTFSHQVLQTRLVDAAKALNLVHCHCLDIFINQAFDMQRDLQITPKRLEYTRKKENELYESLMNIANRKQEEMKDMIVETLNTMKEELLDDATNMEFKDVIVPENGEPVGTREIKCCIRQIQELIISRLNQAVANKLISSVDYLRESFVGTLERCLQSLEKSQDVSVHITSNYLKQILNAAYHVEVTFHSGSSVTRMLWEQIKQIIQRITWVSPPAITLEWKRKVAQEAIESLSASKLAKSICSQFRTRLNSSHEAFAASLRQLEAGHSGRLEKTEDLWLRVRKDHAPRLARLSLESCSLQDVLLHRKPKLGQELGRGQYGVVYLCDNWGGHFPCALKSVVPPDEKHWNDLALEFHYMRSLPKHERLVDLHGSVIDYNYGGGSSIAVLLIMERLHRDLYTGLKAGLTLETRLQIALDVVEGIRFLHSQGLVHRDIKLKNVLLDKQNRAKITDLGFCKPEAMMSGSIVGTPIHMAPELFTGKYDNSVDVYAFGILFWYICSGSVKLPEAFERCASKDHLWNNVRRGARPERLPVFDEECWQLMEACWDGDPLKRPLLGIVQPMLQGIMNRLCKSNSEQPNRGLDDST

[28] = molecular target: 5-hydroxytryptamine receptor 2A (Homo sapiens) (UniProt P28223); conditions: Compound concentration 10.0 uM
[29] = molecular target: Alpha-2A adrenergic receptor (Homo sapiens) (UniProt P08913); conditions: Compound concentration 10.0 uM
Chain of Alpha-2A adrenergic receptor (Homo sapiens) (P08913 whole entry, canonical isoform): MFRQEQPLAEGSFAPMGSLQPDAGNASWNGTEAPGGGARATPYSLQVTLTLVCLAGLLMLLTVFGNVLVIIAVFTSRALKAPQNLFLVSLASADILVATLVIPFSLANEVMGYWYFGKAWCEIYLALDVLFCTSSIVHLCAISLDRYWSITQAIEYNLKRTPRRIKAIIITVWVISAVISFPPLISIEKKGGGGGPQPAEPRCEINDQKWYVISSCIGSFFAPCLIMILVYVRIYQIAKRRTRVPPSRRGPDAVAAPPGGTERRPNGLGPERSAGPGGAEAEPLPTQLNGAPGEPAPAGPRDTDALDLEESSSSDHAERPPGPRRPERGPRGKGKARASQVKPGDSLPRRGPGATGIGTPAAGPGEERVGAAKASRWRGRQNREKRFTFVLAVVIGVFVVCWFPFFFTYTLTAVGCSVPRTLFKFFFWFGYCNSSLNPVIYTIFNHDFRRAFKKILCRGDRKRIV

[30] = system: Phosphatidylinositol 4,5-bisphosphate 3-kinase catalytic subunit alpha isoform (Homo sapiens), P42336 [H1047L]; conditions: Compound concentration 1000.0 nM
[31] = molecular target: Casein kinase I isoform gamma-3 (Homo sapiens) (UniProt Q9Y6M4); conditions: Compound concentration 1000.0 nM
Chain of Casein kinase I isoform gamma-3 (Homo sapiens) (Q9Y6M4 whole entry, looked up, canonical isoform): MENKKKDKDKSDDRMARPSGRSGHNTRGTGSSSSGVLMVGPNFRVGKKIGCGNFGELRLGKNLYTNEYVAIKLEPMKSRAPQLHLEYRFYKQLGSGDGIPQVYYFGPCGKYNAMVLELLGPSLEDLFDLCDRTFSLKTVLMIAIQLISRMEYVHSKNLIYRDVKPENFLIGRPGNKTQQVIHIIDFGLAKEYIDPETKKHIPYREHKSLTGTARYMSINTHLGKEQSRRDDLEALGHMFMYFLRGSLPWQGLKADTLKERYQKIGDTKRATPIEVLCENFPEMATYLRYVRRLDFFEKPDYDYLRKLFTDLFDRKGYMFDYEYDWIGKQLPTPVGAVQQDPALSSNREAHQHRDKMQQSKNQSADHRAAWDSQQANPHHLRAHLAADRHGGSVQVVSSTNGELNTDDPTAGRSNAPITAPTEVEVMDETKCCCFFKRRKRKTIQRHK

[32] = system: Receptor-type tyrosine-protein kinase FLT3 (Homo sapiens), P36888 [D835V]; conditions: Compound concentration 1000.0 nM
[33] = molecular target: Tyrosine-protein kinase Lck (Homo sapiens) (UniProt P06239); conditions: Compound concentration 1000.0 nM

Structure (SMILES)	residual activity [1] [%]	residual activity [2] [%]	residual activity [3] [%]	residual activity [4] [%]	residual activity [5] [%]	residual activity [6] [%]	inhibition [7] [%]	residual activity [8] [%]	inhibition [9] [%]	residual activity [10] [%]	residual activity [11] [%]	residual activity [12] [%]	residual activity [13] [%]	inhibition [14] [%]	residual activity [15] [%]	residual activity [16] [%]	residual activity [17] [%]	residual activity [18] [%]	residual activity [19] [%]	residual activity [20] [%]	also measured
Cn1cncc1[C@@](O)(COc1ccc(C#N)cc1-c1ccc(OC(F)(F)F)cc1)c1ccc(C#N)cc1 [A-108]	6.1	90	92	100	98	75	15	100	-6.52	83	100	100	95	17.1	81	100	100	100	100	88	residual activity [21]: 74%; residual activity [22]: 81%; residual activity [23]: 99%; residual activity [24]: 84%; residual activity [25]: 95%; residual activity [26]: 98%; residual activity [27]: 100%; inhibition [28]: -4.18%; inhibition [29]: 3.37%; residual activity [30]: 100%; residual activity [31]: 100%; residual activity [32]: 89%; residual activity [33]: 100%
Cn1cncc1[C@](O)(COc1ccc(C#N)cc1-c1ccc(OC(F)(F)F)cc1)c1ccc(C#N)cc1 [ABT-100]	84	100	94	59	81	100	9.15	78	10.8	90	63	81	100	0.26	87	100	100	94	100	56	residual activity [21]: 85%; residual activity [22]: 100%; residual activity [23]: 99%; residual activity [24]: 67%; residual activity [25]: 89%; residual activity [26]: 99%; residual activity [27]: 90%; inhibition [28]: -0.429%; inhibition [29]: 32.2%; residual activity [30]: 100%; residual activity [31]: 71%; residual activity [32]: 100%; residual activity [33]: 82%
